Data from patent EP2135612A1, “Use of ATP in the preparation of a medicament for treating, alleviating and/or enhancing survival of pre-terminal cancer patients” (Universiteit van Maastricht, priority 2008, dated 2009).

Experiments:
[1] = tested on: patients with non-small-cell lung cancer (NSCLC); conditions: cited from earlier work
TNF-α = conditions: ex vivo stimulated whole blood; via P2Y11 receptor; cited from earlier work
[2] = tested on: pre-terminal cancer patients; test: Randomized clinical trial: survival (Cox regression, Kaplan-Meier); format: in vivo
Protocol: (§1) Ninety-nine pre-terminal cancer patients (estimated life expectancy 1-6 mo) with mixed tumor types were randomly allocated to receive either ATP i.v. weekly (8 h/wk, max. 50 µg/kg.min) for 8 weeks, or no ATP (control group). Nutritional status parameters were assessed until 8 weeks, and analyzed by repeated-measures analysis of covariance. Cox proportional hazards models were fitted to assess the effect of ATP on short term (0-8 weeks) and long term (0-6 months) survival.
(§2) After baseline measurements, patients were stratified for center, tumor type, and weight loss (≤5% vs. >5% over past 6 months), and then randomly assigned to receive either usual care, standard nutritional advice and ATP (ATP group), or usual care and standard nutritional advice alone (control) group), using computer-generated random numbers with permutation blocks of four. In both groups, nutritional status parameters and co-interventions were assessed until 8 weeks.
(§3) Patients allocated to the ATP group received weekly ATP infusions during 8-10 hours over a period of 8 weeks (21). The first ATP infusion was offered under medical supervision at the day care center of the participating hospitals. ATP infusions were started at a dose rate of 20 µg/kg·min and increased in steps of 10 µg/kg·min per 10 minutes, until reaching a maximum dose rate of 50 µg/kg·min, or the maximally tolerated dose (MTD) if this was lower, in case of side effects. Thereafter, ATP was Infused at a continuous rate. Subsequent infusions were given at MTD in the patient's home.
Cox regression models were fitted including interaction terms between treatment and dummy variables for short term (i.e. 0-8 wks) and long term survival (i.e. 0-6 mo; dummy variables for 0-8 wks and 8 wks-6 mo were combined into a single dummy variable (0-6 mo) since Cox proportional hazards assumption was tested and not rejected). Median survival time was determined by extrapolation from confounder-adjusted Kaplan Meier plots. Because of previously shown survival benefit of ATP treatment in weight-losing stage IIIB NSCLC patients (18), we also performed stratified analyses in weight-stable and weight-losing patients separately defined as ≤5% or >5% weight loss over the past 6 months (22).
All models were appropriately adjusted for confounders. Two-tailed p-values <0.05 were considered statistically significant.

[3] = tested on: pre-terminal cancer patients; test: Randomized clinical trial: nutritional status (anthropometric measurements, nutritional intake) during the 8-week ATP intervention; format: in vivo
Protocol: as §1, §2, §3
Body height was determined using a flexible measuring tape. Body weight was measured without shoes, using an electronic scale (Soehnle 7407 Translucia, Germany). Triceps skin fold thickness was measured in triplicate at the dominant arm, with a Holtain® skin fold caliper (CMS weighing equipment LTD, London UK), and the median used for further calculations. Mid-upper arm circumference was measured in duplicate at the dominant side with a flexible measuring tape, and the mean value was used for further calculations.
In order to exclude inter-observer variability, longitudinal measurements in one patient were performed by one observer. Nutritional intake was assessed by a 3-day food diary, including meal preparation details, and checked by an experienced dietician. Intake of energy and protein was calculated using the Dutch Food Composition Table 2001 (NEVO, The Hague, The Netherlands), by the Software Program Komeet (version 4.0.58; BaS Nutrition Software, Arnhem, The Netherlands).
Data were doubly entered and analyzed according to the intention-to-treat principle. Curves were fitted to describe the time course of nutritional status parameters, and differences over time between the two groups appraised by repeated measurement analysis of covariance, using SAS Proc Mixed version 9.1 (SAS Institute Inc., Cary, NC, USA). Independent variables were the treatment indicator variable, the baseline measurement, measurement time, and the interaction between time and treatment. Statistical significance of treatment effects was assessed by testing the interaction between time and treatment. For weight analyses, patients with oedema and/or ascites were excluded. Because of the favorable previous results in patients with lung cancer (17), all analyses were repeated for this subgroup separately.

[4] = tested on: stage IIIB/IV NSCLC patients; conditions: 15 chemotherapy-naïve stage IIIB/IV NSCLC patients; one to four 96-hour cycles i.v. ATP 50-65 µg/kg.min at 4-week intervals; cited from earlier work
IL-10 = conditions: ex vivo stimulated whole blood; cited from earlier work

Nc1ncnc2c1ncn2[C@@H]1O[C@H](COP(=O)(O)OP(=O)(O)OP(=O)(O)O)[C@@H](O)[C@H]1O [ATP, adenosine 5'-triphosphate]
effects on nutritional intake, body weight, fat and muscle mass ([1]; ATP infusions over 30 h at 2- to 4-week intervals, max. 75 µg/kg.min): marked beneficial effects | survival ([1]; weight-losing patients with stage IIIB NSCLC): highly significant survival benefit | TNF-α release (TNF-α): inhibited | patients still alive on the census date ([2]; census date 10 September 2007, ATP group n=51): 6 patients | HR, survival ([2]; lung cancer patients with >5% overall weight loss, p=0.052): 0.21 | HR, survival 0-8 weeks ([2]; patients with lung cancer (n=44)): 0.17 | HR, survival 0-6 months ([2]; patients with lung cancer (n=44), p=0.025): 0.35 | HR of ATP vs. control, short-term (0-8 weeks) survival ([2]; total group (ATP n=51; control n=48), p=0.037): 0.40 | Median survival ([2]; total group, ATP group, extrapolated from confounder-adjusted Kaplan Meier plots): 150 days | HR, long term survival (0-6 months) ([2]; total group, p=0.26, not significant): 0.71 | effect on survival ([2]; weight-losing patients (>5% weight loss over past 6 months)): No significant effect | HR, survival during the 8-week intervention ([2]; weight-stable patients (≤5% weight loss over past 6 months; ATP n=33; control n=31), p=0.001): 0.20 | HR, long term survival (0-6 months) ([2]; weight-stable patients, p=0.014): 0.40 | Weight, change per 8 weeks, ATP group Estimate ([3]; ATP i.v. weekly 8-10 h, max. 50 µg/kg·min, 8 weeks, n=26, oedema/ascites excluded): -2.62 kg | Triceps skin fold thickness, change per 8 weeks, ATP group Estimate ([3]; ATP i.v. weekly, max. 50 µg/kg·min, 8 weeks, n=48): -1.84 mm | Mid-upper arm circumference, change per 8 weeks, ATP group Estimate ([3]; ATP i.v. weekly, max. 50 µg/kg·min, 8 weeks, n=49): -2.24 cm | intake of energy and protein, difference between the two groups ([3]; ATP vs. control, 8 weeks, 3-day food diary): No statistically significant difference | Triceps skin fold thickness, Between group difference Estimate per 8 weeks ([3]; ATP vs. control, p=0.009): 1.76 mm | stable disease [4]: 8 patients | IL-10 release (IL-10): enhanced
